The values below come from paper PMC6620293, “Anti-cancer activity of the novel 2-hydroxydiarylamide derivatives IMD-0354 and KRT1853 through suppression of cancer cell invasion, proliferation, and survival mediated by TMPRSS4” (Scientific Reports, 2019).

The test addresses dipeptidyl peptidase 4 (DPP4) (Homo sapiens, UniProt P27487). Nature of the test: protease activity profiling assay (BPS Bioscience service), […]~[…] compound in […] DMSO. The test is classed as biochemical.

Molecules are shown by their SMILES.

Sequence of dipeptidyl peptidase 4 (DPP4) (P27487 39-766): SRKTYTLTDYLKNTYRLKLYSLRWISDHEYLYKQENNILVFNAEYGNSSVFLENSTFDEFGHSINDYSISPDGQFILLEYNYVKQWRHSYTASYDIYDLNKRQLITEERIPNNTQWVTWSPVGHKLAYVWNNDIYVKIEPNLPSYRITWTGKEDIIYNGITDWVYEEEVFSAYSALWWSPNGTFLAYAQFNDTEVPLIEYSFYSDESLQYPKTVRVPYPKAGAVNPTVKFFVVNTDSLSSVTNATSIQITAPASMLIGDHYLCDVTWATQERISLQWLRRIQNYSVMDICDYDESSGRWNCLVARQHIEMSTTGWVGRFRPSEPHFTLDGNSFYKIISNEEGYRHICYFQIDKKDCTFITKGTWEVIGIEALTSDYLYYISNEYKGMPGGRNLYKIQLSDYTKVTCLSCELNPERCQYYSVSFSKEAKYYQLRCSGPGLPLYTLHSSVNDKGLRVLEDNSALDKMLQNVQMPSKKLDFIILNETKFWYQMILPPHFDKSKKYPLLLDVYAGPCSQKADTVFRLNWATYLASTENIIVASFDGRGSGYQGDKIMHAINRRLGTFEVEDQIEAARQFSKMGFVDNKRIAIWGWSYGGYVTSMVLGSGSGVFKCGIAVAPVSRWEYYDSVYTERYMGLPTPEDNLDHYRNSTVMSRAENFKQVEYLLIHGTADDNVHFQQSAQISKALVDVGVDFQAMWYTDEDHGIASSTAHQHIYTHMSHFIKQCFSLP

The IC50 is the midpoint of a concentration-inhibition curve. Compound `O=C(Nc1cc(C(F)(F)F)cc(C(F)(F)F)c1)c1cc(Cl)ccc1O` [IMD-0354, N-(3,5-Bis-trifluoromethylphenyl)-5-chloro-2-hydroxybenzamide] showed an IC50 of 9.2 µM.
